Entries after “also recorded” stand apart in the source; their conditions may differ. Where no end group is shown, it is not given here.
Legend:
ECE-2 [1] = biological target: T1, ECE-2 (Bos taurus, UniProt P0DPE2); experiment: Protease inhibitor assay of ECE-2, solubilized CHO/ECE-2 membranes, big ET-1 conversion, pH 5.5; type: biochemical, bovine; conditions: for Percent of control ECE-2 activity remaining with inhibitor: Inhibitor 100 μM, solubilized CHO/ECE-2 membranes, control 100; for inhibition of ECE-2: in vitro sensitivity to inhibitors
T1 construct: solubilized crude membranes or live cells
T1 sequence (P0DPE2 97-883): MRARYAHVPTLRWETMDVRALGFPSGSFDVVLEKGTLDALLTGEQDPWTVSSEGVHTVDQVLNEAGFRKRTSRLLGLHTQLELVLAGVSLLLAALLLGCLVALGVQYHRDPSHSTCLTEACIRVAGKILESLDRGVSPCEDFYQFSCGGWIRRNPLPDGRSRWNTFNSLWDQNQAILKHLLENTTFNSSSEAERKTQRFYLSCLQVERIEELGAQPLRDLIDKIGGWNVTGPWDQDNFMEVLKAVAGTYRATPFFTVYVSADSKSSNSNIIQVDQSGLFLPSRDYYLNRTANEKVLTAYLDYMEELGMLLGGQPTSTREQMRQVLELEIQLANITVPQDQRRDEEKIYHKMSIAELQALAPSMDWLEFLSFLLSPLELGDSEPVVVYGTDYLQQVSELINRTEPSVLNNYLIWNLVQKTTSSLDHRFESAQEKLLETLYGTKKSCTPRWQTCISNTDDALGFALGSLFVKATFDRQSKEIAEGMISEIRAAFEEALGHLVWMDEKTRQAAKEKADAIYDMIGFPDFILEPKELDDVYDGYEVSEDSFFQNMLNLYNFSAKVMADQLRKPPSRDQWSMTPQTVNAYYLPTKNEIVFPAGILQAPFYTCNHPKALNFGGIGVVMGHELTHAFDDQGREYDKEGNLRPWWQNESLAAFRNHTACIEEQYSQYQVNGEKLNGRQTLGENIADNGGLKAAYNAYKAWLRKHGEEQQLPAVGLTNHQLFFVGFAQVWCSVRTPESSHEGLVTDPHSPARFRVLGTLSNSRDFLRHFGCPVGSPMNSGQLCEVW
Experimental: Solubilized crude membranes were prepared in parallel from CHO/ECE-2 and CHO/ECE-1 cells as described (Xu et al., 1994). For protease inhibitor studies, membranes were prepared without protease inhibitors. Standard reaction mixtures for the ECE-2 assay (50 μl) contained 0.1M 2-[N-morpholino]ethanesulfonic acid (MES) buffer (pH 5.5), 0.5M NaCl, 0.1 μM human big ET-1 and an enzyme fraction. […] For the inhibitor studies, the reactions were preincubated at 37° C. with protease inhibitor or vehicle for 15 min. Reactions were started by the addition of substrate, and incubated at 37° C. for 30 min in siliconized 0.5-ml microcentrifuge tubes. […] The mixture was then directly assayed for mature ET-1 as described (Suzuki et al., 1989). Duplicate assay wells were used for each enzyme reaction.

ECE-1 [2] = biological target: T2, ECE-1 (Bos taurus, UniProt P42891); experiment: Protease inhibitor assay of ECE-1, solubilized CHO/ECE-1 membranes, big ET-1 conversion, pH 6.8; type: biochemical, bovine; conditions: for Percent ECE-1 activity remaining with inhibitor (of control): Inhibitor 100 μM, solubilized CHO/ECE-1 membranes, control 100; for inhibition of ECE-1: sensitivity to protease inhibitors, Table 2
T2 construct: made in house
T2 sequence (P42891 1-754): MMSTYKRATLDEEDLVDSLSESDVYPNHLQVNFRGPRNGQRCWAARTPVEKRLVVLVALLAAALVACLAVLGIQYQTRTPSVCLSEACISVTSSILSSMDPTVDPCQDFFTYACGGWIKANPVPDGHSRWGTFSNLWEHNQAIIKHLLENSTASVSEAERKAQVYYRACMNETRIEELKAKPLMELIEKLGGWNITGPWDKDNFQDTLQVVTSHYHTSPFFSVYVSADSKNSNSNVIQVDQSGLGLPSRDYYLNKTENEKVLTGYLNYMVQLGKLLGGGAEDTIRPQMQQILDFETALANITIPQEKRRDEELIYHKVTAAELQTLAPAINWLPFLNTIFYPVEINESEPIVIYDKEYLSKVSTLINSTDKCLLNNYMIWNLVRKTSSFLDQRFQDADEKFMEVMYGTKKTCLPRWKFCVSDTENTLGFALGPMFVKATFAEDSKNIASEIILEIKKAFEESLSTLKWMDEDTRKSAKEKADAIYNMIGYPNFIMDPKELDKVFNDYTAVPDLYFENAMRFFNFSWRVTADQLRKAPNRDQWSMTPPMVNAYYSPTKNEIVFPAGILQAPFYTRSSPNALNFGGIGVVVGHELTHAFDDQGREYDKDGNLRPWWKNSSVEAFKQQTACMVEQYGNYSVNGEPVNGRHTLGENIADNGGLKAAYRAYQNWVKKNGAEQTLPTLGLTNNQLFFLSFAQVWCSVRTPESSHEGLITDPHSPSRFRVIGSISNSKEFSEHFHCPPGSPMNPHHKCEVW
Experimental: Solubilized crude membranes were prepared in parallel from CHO/ECE-2 and CHO/ECE-1 cells as described (Xu et al., 1994). For protease inhibitor studies, membranes were prepared without protease inhibitors. Standard reaction mixtures for the ECE-2 assay (50 μl) contained 0.1M 2-[N-morpholino]ethanesulfonic acid (MES) buffer (pH 5.5), 0.5M NaCl, 0.1 μM human big ET-1 and an enzyme fraction. ECE-1 assay reactions contained 0.1M phosphate buffer (pH 6.8) instead of the MES buffer. For the pH profiling and isopeptide selectivity studies, the buffer solution (0.1M) or the substrate (0.1 μM) was substituted as designated. For the inhibitor studies, the reactions were preincubated at 37° C. with protease inhibitor or vehicle for 15 min. Reactions were started by the addition of substrate, and incubated at 37° C. for 30 min in siliconized 0.5-ml microcentrifuge tubes. […] The mixture was then directly assayed for mature ET-1 as described (Suzuki et al., 1989). Duplicate assay wells were used for each enzyme reaction. […] Protein concentrations were determined by the Bradford method (Bio-Rad) using IgG as standard.

ECE-2 [3] = biological target: T1, ECE-2; experiment: Coculture of CHO/ECE-2 and CHO/preproET-1 cells: cleavage of exogenously supplied big ET-1; type: cell-based, bovine; conditions: up to 100 μM
Experimental: (§1) Production of mature ET-1 by CHO/ECE-1-CHO/preproET-1 and CHO/ECE-2-CHO/preproET-1 cocultures: Cleavage of exogenously supplied big ET-1. […] Negative control experiments were performed by coculturing parental CHO cells with CHO/preproET-1 cells. Open circles, CHO/ET-1+CHO/ECE-1 (Phos); closed circles, CHO/ET-1+CHO/ECE-1 (FR); open squares, CHO/ET-1+CHO/ECE-2 (Phos); closed squares, CHO/ET-1+CHO/ECE-2 (FR); open triangles, CHO/ET-1+CHO-K1 (Phos).
(§2) This was tested by coculturing the stable transfectant CHO/preproET-1 cells with either CHO/ECE-1 or CHO/ECE-2 cells, and determining the amount of mature ET-1 in the medium.

ECE-1 [4] = biological target: T2, ECE-1; experiment: Coculture of CHO/ECE-1 and CHO/preproET-1 cells: cleavage of exogenously supplied big ET-1; type: cell-based, bovine
Experimental: as §1, §2

ECE-2 [5] = biological target: T1, ECE-2; experiment: Double-transfection live cell assay: mature ET-1 secretion by CHO/ECE-2 cells transfected with preproET-1 cDNA; type: cell-based, bovine
Experimental: Production of mature ET-1 by CHO/ECE-2 cells transiently transfected with preproET-1 cDNA: Cleavage of endogenously produced big ET-1. Doubly transfected cells were cultured for 12 h in the absence or presence of the designated concentrations of ECE inhibitors, and mature ET-1 in the conditioned medium was determined. Negative control studies with parental CHO cells are shown by dashed lines.
CHO/ECE-2 cells and untransfected CHO cells were transiently transfected in parallel with a preproET-1 construct, and mature ET-1 secreted from these cells into the medium was determined by EIA.
CHO-K1 cells were cultured as described (Xu et al., 1994). Since many batches of tissue culture-grade trypsin preparations contained high levels of metalloprotease contaminants with an ECE-like activity, a highly purified crystallized preparation of trypsin (Sigma, Catalog No. T7418) was dissolved in phosphate-buffered saline at 0.013% (w/v) and used for all trypsinization procedures. […] Twelve hours after the transient transfection, cells were refed with fresh medium with or without ECE inhibitors. The medium was conditioned for an additional 12 h and directly subjected to enzyme immunoassay (EIA) for mature ET-1 (Suzuki et al., 1989).

[6] = Stability of big and mature endothelin isopeptides with crude membrane proteins, ECE-2 assay conditions (pH 5.6); type: physicochemical
ECE-2 [7] = biological target: T1, ECE-2; experiment: Substrate kinetics and isopeptide substrate selectivity of ECE-2; type: biochemical, bovine
Experimental: Isopeptide substrate selectivity of ECE-2. Substrates are: closed circles, big ET-1 (1-38); closed squares, big ET-2 (1-38); and closed triangles, big ET-3 (1-41 Amide). Activity is reported as conversion (fmol/30 min) vs μg of membrane protein.
Solubilized crude membranes were prepared in parallel from CHO/ECE-2 and CHO/ECE-1 cells as described (Xu et al., 1994). […] Standard reaction mixtures for the ECE-2 assay (50 μl) contained 0.1M 2-[N-morpholino]ethanesulfonic acid (MES) buffer (pH 5.5), 0.5M NaCl, 0.1 μM human big ET-1 and an enzyme fraction. […] For the pH profiling and isopeptide selectivity studies, the buffer solution (0.1M) or the substrate (0.1 μM) was substituted as designated. […] Reactions were started by the addition of substrate, and incubated at 37° C. for 30 min in siliconized 0.5-ml microcentrifuge tubes. […] The mixture was then directly assayed for mature ET-1 as described (Suzuki et al., 1989). Duplicate assay wells were used for each enzyme reaction. For big ET-2 and big ET-3 conversion assays, mature ET-1 EIA (which fully cross-reacts with mature ET-2) and mature ET-3 EIA were used with human ET-2 and ET-3 as standards, respectively (Matsumoto et al., 1989). Protein concentrations were determined by the Bradford method (Bio-Rad) using IgG as standard.

ECE-1 [8] = biological target: T2, ECE-1; experiment: Substrate kinetics and isopeptide substrate selectivity of ECE-1; type: biochemical, bovine; conditions: big ET-1 0.01-10 μM; 20 μg crude membrane proteins, 30 min; read-out: apparent Km of ECE-1
Experimental: Solubilized crude membranes were prepared in parallel from CHO/ECE-2 and CHO/ECE-1 cells as described (Xu et al., 1994). For protease inhibitor studies, membranes were prepared without protease inhibitors. Standard reaction mixtures for the ECE-2 assay (50 μl) contained 0.1M 2-[N-morpholino]ethanesulfonic acid (MES) buffer (pH 5.5), 0.5M NaCl, 0.1 μM human big ET-1 and an enzyme fraction. ECE-1 assay reactions contained 0.1M phosphate buffer (pH 6.8) instead of the MES buffer. For the pH profiling and isopeptide selectivity studies, the buffer solution (0.1M) or the substrate (0.1 μM) was substituted as designated. For the inhibitor studies, the reactions were preincubated at 37° C. with protease inhibitor or vehicle for 15 min. Reactions were started by the addition of substrate, and incubated at 37° C. for 30 min in siliconized 0.5-ml microcentrifuge tubes. […] The mixture was then directly assayed for mature ET-1 as described (Suzuki et al., 1989). Duplicate assay wells were used for each enzyme reaction. For big ET-2 and big ET-3 conversion assays, mature ET-1 EIA (which fully cross-reacts with mature ET-2) and mature ET-3 EIA were used with human ET-2 and ET-3 as standards, respectively (Matsumoto et al., 1989). Protein concentrations were determined by the Bradford method (Bio-Rad) using IgG as standard.

[9] = cartilage; literature; cited from earlier work
big ET-1 [10] = conditions: cited from earlier work
big ET-1 [11] = experiment: pH profile of ECE activity; type: biochemical, human
Experimental: FIG. 1B. pH profile of ECE-2. […] Buffers are: open squares, acetate; closed squares, MES; open circles, phosphate; closed circles, Tris; open triangles, glycine.
FIG. 1B is a pH profile of ECE-2. Optimal activity of ECE-2 is at pH 5.5 in contrast to the previously discovered ECE-1, which has optimal activity at pH 6.8. […] In all subsequent studies, ECE-2 assays were performed at pH 5.5. […] A majority of the ECE-2 activity in the CHO/ECE-2 cell homogenates was found in the membrane fraction. No significant ECE-2 activity was detected in the culture supernatants from CHO/ECE-2 cells.
Solubilized crude membranes were prepared in parallel from CHO/ECE-2 and CHO/ECE-1 cells as described (Xu et al., 1994). For protease inhibitor studies, membranes were prepared without protease inhibitors. Standard reaction mixtures for the ECE-2 assay (50 μl) contained 0.1M 2-[N-morpholino]ethanesulfonic acid (MES) buffer (pH 5.5), 0.5M NaCl, 0.1 μM human big ET-1 and an enzyme fraction. ECE-1 assay reactions contained 0.1M phosphate buffer (pH 6.8) instead of the MES buffer. For the pH profiling and isopeptide selectivity studies, the buffer solution (0.1M) or the substrate (0.1 μM) was substituted as designated. […] Protein concentrations were determined by the Bradford method (Bio-Rad) using IgG as standard.

With `N=C(N)c1ccc(CS(=O)(=O)F)cc1` [APMSF, 4-amidinophenylmethylsulphonyl fluoride] the “Percent of control ECE-2 activity remaining with inhibitor” value (ECE-2 [1]) was 93% and the “Percent ECE-1 activity remaining with inhibitor (of control)” value (ECE-1 [2]) was 107%.

For `C[C@H](CS)C(=O)N1CCC[C@H]1C(=O)O` [Captopril], the “inhibition of ECE-2” value (ECE-2 [1]) was “not inhibited” and the “inhibition of ECE-1” value (ECE-1 [2]) was “not inhibited”.

In the case of `COc1c2c(c(O)c3c1C(O)Cc1cc(CC(C)O)c(C(=O)O)c(O)c1-3)C(=O)c1cccc(O)c1C2=O` (stereo not drawn) [FR901533, 1,6,9,14-tetrahydroxy-3-(2-hydroxypropyl)-7-methoxy-8,13-dioxo-5,6,8,13-tetrahydro-benzo[α]naphthacene-2-carboxylate .cndot. Na], the “inhibition of mature peptide production, CHO/ECE-2 coculture” value (ECE-2 [3]) is reported as “not inhibited”, the IC50 (ECE-1 [4]) is reported as roughly 1000 nM and the “inhibition of ECE-2” value (ECE-2 [1]) is reported as “inhibited; also recorded: efficiently inhibits the conversion of big ET-1 by ECE-2 in vitro”. The IC50 (ECE-2 [1]; in vitro, pH 5.5) was 3000 nM, the “inhibition of conversion in transfected CHO/ECE-2 cells” value (ECE-2 [5]; added to medium at up to 1 mM) was “did not appreciably inhibit the conversion” and the IC50 (ECE-1 [2]; in vitro, pH 6.8) was 2000 nM. For the same molecule, the “inhibition of ECE-1” value (ECE-1 [2]) was “inhibited”.

In the case of `O=C(O)CNC(=O)C(CS)Cc1ccccc1` (stereo not shown) [Thiorphan], the “inhibition of ECE-2” value (ECE-2 [1]) is reported as “not inhibited” and the “inhibition of ECE-1” value (ECE-1 [2]) is reported as “not inhibited”.

With `O=S(=O)(O)c1cc[c]([Hg][Cl])cc1` [pCMS, p-chloromercuriphenylsulphonic acid] the “Percent of control ECE-2 activity remaining with inhibitor” value (ECE-2 [1]) was 345%, the “inhibition of ECE-2” value (ECE-2 [1]) was “augmented the activity of ECE-2” and the “Percent ECE-1 activity remaining with inhibitor (of control)” value (ECE-1 [2]) was 136%.

For “ET-1: Synthetic human ET-1; 21-amino-acid peptide”, the “rate of degradation among isopeptides” value [6] was “degraded at similar rates”.

In the case of “ET-2: Synthetic human ET-2 (CSCSSWLDKECVYFCHLDIIW; ends and bridges not checked; cysteine pairing not given here; UniProt P20800 49-69, looked up)”, the “rate of degradation among isopeptides” value [6] is reported as “degraded at similar rates”.

In the case of ET-3: Synthetic human ET-3, the “rate of degradation among isopeptides” value [6] is reported as “degraded at similar rates”.

With “big ET-1: Synthetic human big ET-1[1-38] (CSCSSLMDKECVYFCHLDIIWVNTPEHVVPYGLGSPRS; ends and bridges not checked; cysteine pairing not given here; UniProt P05305 53-90, looked up)” the “rate of degradation among isopeptides” value [6] was “degraded at similar rates”, the “relative rate of cleavage by ECE-2” value (ECE-2 [7]; 20-40 μg membrane proteins, optimal pH) was 100% and the Km (ECE-2 [7]; big ET-1 0.01-10 μM, 20 μg crude membrane proteins, 30 min, read-out: apparent Km of ECE-2) was 1 to 2 µM. For the same molecule, the Km (ECE-1 [8]) was 1 to 2 µM.

In the case of “matrix metalloproteinase-3: matrix metalloprotease in cartilage, matrix metalloproteinase-3 (MMP-3; stromelysin-1)”, the pH optimum [9] is given as 5.3-5.5.

B1: ECE-1: type II membrane-bound metalloprotease that processed endogenously produced big ET-1 (protein, UniProt P42892 1-770, looked up)
Endothelin-converting enzyme 1: MRGVWPPPVSALLSALGMSTYKRATLDEEDLVDSLSEGDAYPNGLQVNFHSPRSGQRCWAARTQVEKRLVVLVVLLAAGLVACLAALGIQYQTRSPSVCLSEACVSVTSSILSSMDPTVDPCHDFFSYACGGWIKANPVPDGHSRWGTFSNLWEHNQAIIKHLLENSTASVSEAERKAQVYYRACMNETRIEELRAKPLMELIERLGGWNITGPWAKDNFQDTLQVVTAHYRTSPFFSVYVSADSKNSNSNVIQVDQSGLGLPSRDYYLNKTENEKVLTGYLNYMVQLGKLLGGGDEEAIRPQMQQILDFETALANITIPQEKRRDEELIYHKVTAAELQTLAPAINWLPFLNTIFYPVEINESEPIVVYDKEYLEQISTLINTTDRCLLNNYMIWNLVRKTSSFLDQRFQDADEKFMEVMYGTKKTCLPRWKFCVSDTENNLGFALGPMFVKATFAEDSKSIATEIILEIKKAFEESLSTLKWMDEETRKSAKEKADAIYNMIGYPNFIMDPKELDKVFNDYTAVPDLYFENAMRFFNFSWRVTADQLRKAPNRDQWSMTPPMVNAYYSPTKNEIVFPAGILQAPFYTRSSPKALNFGGIGVVVGHELTHAFDDQGREYDKDGNLRPWWKNSSVEAFKRQTECMVEQYSNYSVNGEPVNGRHTLGENIADNGGLKAAYRAYQNWVKKNGAEHSLPTLGLTNNQLFFLGFAQVWCSVRTPESSHEGLITDPHSPSRFRVIGSLSNSKEFSEHFRCPPGSPMNPPHKCEVW
In the case of B1, the “pH optimum of previously discovered ECE-1” value (big ET-1 [10]) is listed as 6.8.

B2: ECE-2: novel membrane-bound metalloprotease; 787-amino-acid polypeptide, SEQ ID NO:2 (protein)
chain: MRARYAHVPTLRWETMDVRALGFPSGSFDVVLEKGTLDALLTGEQDPWTVSSEGVHTVDQVLNEAGFRKRTSRLLGLHTQLELVLAGVSLLLAALLLGCLVALGVQYHRDPSHSTCLTEACIRVAGKILESLDRGVSPCEDFYQFSCGGWIRRNPLPDGRSRWNNSNSLWDQNQAILKHLLENTTFNSSSEAERKTQRFYLSCLQVERIEELGAHALRDLIDKIGGWNVTGPWDQDNFMEVLKAVAGTYRATPFFTVYVSADSKSSNSNIIQVDQSGLFLPSRDYYLNRTANEKVLTAYLDYMEELGMLLGGQPTSTREQMRQVLELEIQLANITVPQDQRRDEEKIYHKMSIAELQALAPSMDWLEFLSFLLSPLELGDSEPVVVYGTDYLQQVSELINRTEPSVLNNYLIWNLVQKTTSSLDHRFESAQEKLLETLYGTKKSCTPRWQTCISNTDDALGFALGSLFVKATFDRQSKEIAEGMISEIRVAFEEALGHLVWMDEKTRQAAKEKADAIYDMIGFPDFILEPKELDDVYDGYEVSEDSFFQNMLNLYNFSAKVMADQLRKPPSRDQWSMTPQTVNAYYLPTKNEIVFPAGILQAPFYTCNHPQALNFGGIGVVMGHELTHAFDDQGREYDKEGNLRPWWQNESLAAFRNHTACIEEQYSQYQVNGEKLNGRQTLGENIADNGGLKAAYNAYKAWLRKHGEEQQLPAVGLTNHQLFFVGFAQVWCSVRTPESSHEGLVTDPHSPARFRVLGTLSNSRDFLRHFGCPVGSPMNSGQLCEVW
For B2, the “pH of optimal activity” value (big ET-1 [11]; conversion of big ET-1) was 5.5, the “activity at neutral pH (6.8)” value (big ET-1 [11]; standard ECE-1 assay) was “virtually inactive” and the “total endothelin peptides converted to mature ET-1” value (ECE-2 [5]; double-transfection assays) was “up to 40%”.

Source: patent US5736376A, “Recombinant endothelin converting enzyme-2 and its use in ECE inhibitor screening” (Board of Regents, The University of Texas System, priority 1995, dated 1998)
